Laboratory results published in patent US20230143604A1, “QW DOSING OF GIP RECEPTOR AGONIST PEPTIDE COMPOUNDS AND USES THEREOF” (TAKEDA PHARMACEUTICAL COMPANY LIMITED, priority 2020, published 2023).
Starred links: 1 amine or outer side, 2 acyl side, 3 side chain; linkers in the order of their positions; H or OH if unused. Non-standard residues stand in square brackets, D forms with d. Residues, ends and D or L forms follow the SMILES beside them. Groups on a side chain read outwards from the residue. *: point of attachment. C18 diacid = O=C(O)CCCCCCCCCCCCCCCCC(=O)*; γGlu = O=C(O)[C@H](CCC(=O)[*:2])N[*:1]; NMeY = CN[C@@H](Cc1ccc(O)cc1)C(=O)O; AEEA = NCCOCCOCC(=O)O; Aib = CC(C)(N)C(=O)O

Assay: physchem
In short: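 3 mg of peptide treated with 100 μL portions of 200 mM phosphate buffer pH 7.4, sonicating/vortexing up to 1 min, with further buffer added until fully dissolved. Solubility then quantified by HPLC.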

[1] = pH 7.4, aqueous buffer, pH 7.4 Phosphate Buffer - Solubility, 200 mM Phosphate buffer pH 7.4
[2] = pH 7.4, solubility in phosphate buffer at pH 7.4, 200 mM phosphate buffer pH 7.4

Question: Which solubility (pH 7.4) does the source give for `CC[C@H](C)[C@H](NC(=O)[C@H](CO)NC(=O)[C@H](Cc1ccc(O)cc1)NC(=O)[C@H](CC(=O)O)NC(=O)[C@H](CO)NC(=O)[C@@H](NC(=O)[C@H](Cc1ccccc1)NC(=O)[C@@H](NC(=O)CNC(=O)[C@H](CCC(=O)O)NC(=O)C(C)(C)NC(=O)[C@@H](N)Cc1ccc(O)cc1)[C@@H](C)O)[C@@H](C)CC)C(=O)N[C@@H](C)C(=O)N[C@@H](CC(C)C)C(=O)N[C@@H](CC(=O)O)C(=O)N[C@@H](CCCCN)C(=O)NC(C)(C)C(=O)N[C@@H](C)C(=O)N[C@@H](CCC(N)=O)C(=O)N[C@@H](CCCNC(=N)N)C(=O)N[C@@H](CCCCNC(=O)COCCOCCNC(=O)COCCOCCNC(=O)CC[C@H](NC(=O)CC[C@H](NC(=O)CCCCCCCCCCCCCCCCC(=O)O)C(=O)O)C(=O)O)C(=O)N[C@@H](Cc1ccccc1)C(=O)N[C@H](C(=O)N[C@@H](CCC(=O)O)C(=O)N[C@@H](Cc1c[nH]c2ccccc12)C(=O)N[C@@H](CC(C)C)C(=O)N[C@@H](CC(C)C)C(=O)N[C@@H](C)C(=O)N[C@@H](CCC(N)=O)C(=O)N[C@@H](CCCNC(=N)N)C(=O)NCC(=O)O)C(C)C` [Compound 156] (H-Y[Aib]EGTFISDYSIALDK[Aib]AQRK([AEEA-AEEA-γGlu-γGlu-C18 diacid])FVEWLLAQRG-OH) here?
Answer: Its solubility is no less than 15 mg/mL.

Question: What about the solubility (pH 7.4, aqueous buffer) of the same compound?
Answer: The solubility was no less than 30 mg/mL.

Question: For `CC[C@H](C)[C@H](NC(=O)[C@H](CO)NC(=O)[C@H](Cc1ccc(O)cc1)NC(=O)[C@H](CC(=O)O)NC(=O)[C@H](CO)NC(=O)[C@@H](NC(=O)[C@H](Cc1ccccc1)NC(=O)[C@@H](NC(=O)CNC(=O)[C@H](CCC(=O)O)NC(=O)C(C)(C)NC(=O)[C@H](Cc1ccc(O)cc1)NC)[C@@H](C)O)[C@@H](C)CC)C(=O)N[C@@H](C)C(=O)N[C@@H](CC(C)C)C(=O)N[C@@H](CC(=O)O)C(=O)N[C@@H](CCCNC(=N)N)C(=O)NC(C)(C)C(=O)N[C@@H](C)C(=O)N[C@@H](CCC(N)=O)C(=O)NC(C)(C)C(=O)N[C@@H](CCCCNC(=O)COCCOCCNC(=O)COCCOCCNC(=O)CC[C@H](NC(=O)CC[C@H](NC(=O)CCCCCCCCCCCCCCCCC(=O)O)C(=O)O)C(=O)O)C(=O)N[C@@H](Cc1ccccc1)C(=O)N[C@H](C(=O)N[C@@H](CC(N)=O)C(=O)N[C@@H](Cc1c[nH]c2ccccc12)C(=O)N[C@@H](CC(C)C)C(=O)N[C@@H](CC(C)C)C(=O)N[C@@H](C)C(=O)N[C@@H](CCC(N)=O)C(=O)N[C@@H](CCCNC(=N)N)C(=O)N1CCC[C@H]1C(=O)N[C@@H](CO)C(=O)N[C@@H](CO)C(=O)NCC(=O)N[C@@H](C)C(=O)N1CCC[C@H]1C(=O)N1CCC[C@H]1C(=O)N1CCC[C@H]1C(=O)N[C@@H](CO)C(N)=O)C(C)C` [Compound 35] (H-[NMeY][Aib]EGTFISDYSIALDR[Aib]AQ[Aib]K([AEEA-AEEA-γGlu-γGlu-C18 diacid])FVNWLLAQRPSSGAPPPS-NH2), which solubility [1] is on record?
Answer: The solubility was no less than 30 mg/mL.

Question: What about the solubility [2] of the same compound?
Answer: Its solubility is no less than 15 mg/mL.

Question: With `CC[C@H](C)[C@H](NC(=O)[C@H](CO)NC(=O)[C@H](Cc1ccc(O)cc1)NC(=O)[C@H](CC(=O)O)NC(=O)[C@H](CO)NC(=O)[C@@H](NC(=O)[C@H](Cc1ccccc1)NC(=O)[C@@H](NC(=O)CNC(=O)[C@H](CCC(=O)O)NC(=O)C(C)(C)NC(=O)[C@H](Cc1ccc(O)cc1)NC)[C@@H](C)O)[C@@H](C)CC)C(=O)N[C@@H](C)C(=O)N[C@@H](CC(C)C)C(=O)N[C@@H](CC(=O)O)C(=O)N[C@@H](CCCNC(=N)N)C(=O)NC(C)(C)C(=O)N[C@@H](C)C(=O)N[C@@H](CCC(N)=O)C(=O)NC(C)(C)C(=O)N[C@@H](CCCCNC(=O)COCCOCCNC(=O)COCCOCCNC(=O)CC[C@H](NC(=O)CC[C@H](NC(=O)CCCCCCCCCCCCCCCCC(=O)O)C(=O)O)C(=O)O)C(=O)N[C@@H](Cc1ccccc1)C(=O)N[C@H](C(=O)N[C@@H](CC(N)=O)C(=O)N[C@@H](Cc1c[nH]c2ccccc12)C(=O)N[C@@H](CC(C)C)C(=O)N[C@@H](CC(C)C)C(=O)N[C@@H](C)C(=O)N[C@@H](CCC(N)=O)C(=O)N[C@@H](CO)C(=O)N1CCC[C@H]1C(=O)NCC(=O)O)C(C)C` [Compound 86] (H-[NMeY][Aib]EGTFISDYSIALDR[Aib]AQ[Aib]K([AEEA-AEEA-γGlu-γGlu-C18 diacid])FVNWLLAQSPG-OH) as the compound, how does the solubility (pH 7.4) read?
Answer: Its solubility is no less than 15 mg/mL.

Question: And the solubility (pH 7.4, aqueous buffer)?
Answer: The solubility was no less than 30 mg/mL.

Question: Which solubility (pH 7.4) does the source give for `CC[C@H](C)[C@H](NC(=O)[C@H](CO)NC(=O)[C@H](Cc1ccc(O)cc1)NC(=O)[C@H](CC(=O)O)NC(=O)[C@H](CO)NC(=O)[C@@H](NC(=O)[C@H](Cc1ccccc1)NC(=O)[C@@H](NC(=O)CNC(=O)[C@H](CCC(=O)O)NC(=O)C(C)(C)NC(=O)[C@H](Cc1ccc(O)cc1)NC)[C@@H](C)O)[C@@H](C)CC)C(=O)N[C@@H](C)C(=O)N[C@@H](CC(C)C)C(=O)N[C@@H](CC(=O)O)C(=O)N[C@@H](CCCCN)C(=O)N[C@@H](C)C(=O)N[C@@H](C)C(=O)N[C@@H](CCC(N)=O)C(=O)NC(C)(C)C(=O)N[C@@H](CCCCNC(=O)COCCOCCNC(=O)COCCOCCNC(=O)CC[C@H](NC(=O)CC[C@H](NC(=O)CCCCCCCCCCCCCCCCC(=O)O)C(=O)O)C(=O)O)C(=O)N[C@@H](Cc1ccccc1)C(=O)N[C@H](C(=O)N[C@@H](CCC(=O)O)C(=O)N[C@@H](Cc1c[nH]c2ccccc12)C(=O)N[C@@H](CC(C)C)C(=O)N[C@@H](CC(C)C)C(=O)N[C@@H](C)C(=O)N[C@@H](CCC(N)=O)C(=O)N[C@@H](CCCNC(=N)N)C(=O)NCC(=O)O)C(C)C` [Compound 174] (H-[NMeY][Aib]EGTFISDYSIALDKAAQ[Aib]K([AEEA-AEEA-γGlu-γGlu-C18 diacid])FVEWLLAQRG-OH) here?
Answer: Its solubility is no less than 15 mg/mL.

Question: What about the solubility (pH 7.4, aqueous buffer) of the same compound?
Answer: Its solubility is no less than 30 mg/mL.

Question: Which solubility [1] does the source give for `CC[C@H](C)[C@H](NC(=O)[C@H](Cc1ccccc1)NC(=O)[C@@H](NC(=O)CNC(=O)[C@H](CCC(=O)O)NC(=O)C(C)(C)NC(=O)[C@H](Cc1ccc(O)cc1)NC)[C@@H](C)O)C(=O)N[C@@H](CO)C(=O)N[C@@H](CC(=O)O)C(=O)N[C@@H](Cc1ccc(O)cc1)C(=O)N[C@@H](CO)C(=O)N[C@H](C(=O)NC(C)(C)C(=O)N[C@@H](CC(C)C)C(=O)N[C@@H](CC(=O)O)C(=O)N[C@@H](CCCNC(=N)N)C(=O)NC(C)(C)C(=O)N[C@@H](C)C(=O)N[C@@H](C)C(=O)NC(C)(C)C(=O)N[C@@H](CCCCNC(=O)COCCOCCNC(=O)COCCOCCNC(=O)CC[C@H](NC(=O)CC[C@H](NC(=O)CCCCCCCCCCCCCCCCC(=O)O)C(=O)O)C(=O)O)C(=O)N[C@@H](Cc1ccccc1)C(=O)N[C@H](C(=O)N[C@@H](CC(N)=O)C(=O)N[C@@H](Cc1c[nH]c2ccccc12)C(=O)N[C@@H](CC(C)C)C(=O)N[C@@H](CC(C)C)C(=O)N[C@@H](C)C(=O)N[C@@H](CCC(N)=O)C(=O)N[C@@H](CO)C(=O)N1CCC[C@H]1C(=O)N[C@@H](CO)C(=O)N[C@@H](CO)C(=O)NCC(=O)N[C@@H](C)C(=O)N1CCC[C@H]1C(=O)N1CCC[C@H]1C(=O)N1CCC[C@H]1C(=O)N[C@@H](CO)C(N)=O)C(C)C)[C@@H](C)CC` [Compound 107] (H-[NMeY][Aib]EGTFISDYSI[Aib]LDR[Aib]AA[Aib]K([AEEA-AEEA-γGlu-γGlu-C18 diacid])FVNWLLAQSPSSGAPPPS-NH2) here?
Answer: Its solubility is no less than 60 mg/mL.

Question: And the solubility [2]?
Answer: The solubility was no less than 15 mg/mL.

Question: For `CC[C@H](C)[C@H](NC(=O)[C@H](CO)NC(=O)[C@H](Cc1ccc(O)cc1)NC(=O)[C@H](CC(=O)O)NC(=O)[C@H](CO)NC(=O)[C@@H](NC(=O)[C@H](Cc1ccccc1)NC(=O)[C@@H](NC(=O)CNC(=O)[C@H](CCC(=O)O)NC(=O)C(C)(C)NC(=O)[C@@H](N)Cc1ccc(O)cc1)[C@@H](C)O)[C@@H](C)CC)C(=O)N[C@@H](C)C(=O)N[C@@H](CC(C)C)C(=O)N[C@@H](CC(=O)O)C(=O)N[C@@H](CCCCN)C(=O)NC(C)(C)C(=O)N[C@@H](C)C(=O)N[C@@H](CCC(N)=O)C(=O)N[C@@H](C)C(=O)N[C@@H](CCCCNC(=O)COCCOCCNC(=O)COCCOCCNC(=O)CC[C@H](NC(=O)CC[C@H](NC(=O)CCCCCCCCCCCCCCCCC(=O)O)C(=O)O)C(=O)O)C(=O)N[C@@H](Cc1ccccc1)C(=O)N[C@H](C(=O)N[C@@H](CCC(=O)O)C(=O)N[C@@H](Cc1c[nH]c2ccccc12)C(=O)N[C@@H](CC(C)C)C(=O)N[C@@H](CC(C)C)C(=O)N[C@@H](C)C(=O)N[C@@H](CCC(N)=O)C(=O)N[C@@H](CCCNC(=N)N)C(=O)NCC(=O)O)C(C)C` [Compound 155] (H-Y[Aib]EGTFISDYSIALDK[Aib]AQAK([AEEA-AEEA-γGlu-γGlu-C18 diacid])FVEWLLAQRG-OH), which solubility (pH 7.4) is on record?
Answer: Its solubility is no less than 15 mg/mL.

Question: And the solubility (pH 7.4, aqueous buffer)?
Answer: The solubility was no less than 30 mg/mL.

Question: Which solubility (pH 7.4) does the source give for `CC[C@H](C)[C@H](NC(=O)[C@H](CO)NC(=O)[C@H](Cc1ccc(O)cc1)NC(=O)[C@H](CC(=O)O)NC(=O)[C@H](CO)NC(=O)[C@@H](NC(=O)[C@H](Cc1ccccc1)NC(=O)[C@@H](NC(=O)CNC(=O)[C@H](CCC(=O)O)NC(=O)C(C)(C)NC(=O)[C@@H](N)Cc1ccc(O)cc1)[C@@H](C)O)[C@@H](C)CC)C(=O)N[C@@H](C)C(=O)N[C@@H](CC(C)C)C(=O)N[C@@H](CC(=O)O)C(=O)N[C@@H](CCCCN)C(=O)N[C@H](C(=O)N[C@@H](CCCCNC(=O)COCCOCCNC(=O)COCCOCCNC(=O)CC[C@H](NC(=O)CCCCCCCCCCCCCCCCC(=O)O)C(=O)O)C(=O)N[C@@H](CCC(N)=O)C(=O)NC(C)(C)C(=O)N[C@@H](CC(=O)O)C(=O)N[C@@H](Cc1ccccc1)C(=O)N[C@H](C(=O)N[C@@H](CCC(=O)O)C(=O)N[C@@H](Cc1c[nH]c2ccccc12)C(=O)N[C@@H](CC(C)C)C(=O)N[C@@H](CC(C)C)C(=O)N[C@@H](C)C(=O)N[C@@H](CCC(N)=O)C(=O)N[C@@H](CCCNC(=N)N)C(=O)NCC(=O)O)C(C)C)[C@@H](C)CC` [Compound 160] (H-Y[Aib]EGTFISDYSIALDKIK([AEEA-AEEA-γGlu-C18 diacid])Q[Aib]DFVEWLLAQRG-OH) here?
Answer: The solubility was no less than 15 mg/mL.

Question: And the solubility (pH 7.4, aqueous buffer)?
Answer: Its solubility is no less than 30 mg/mL.
